Legend:
[1] = system: DYRK1A; assay: Brain DYRK1A protein expression by western blotting after treatment; type: in vivo, mouse; conditions: 19 days daily i.p., transgenic and wt brains
Method: Brains were obtained from mice and snap-frozen until further use. Then tissues were weighed, homogenized and sonicated in 1 ml lysis buffer (60 mM β-glycerophosphate, 15 mM p-nitrophenylphosphate, 25 mM Mops pH 7.2, 15 mM EGTA, 15 mM MgCl2, 2 mM dithiothreitol, 1 mM sodium orthovanadate, 1 mM sodium fluoride, 1 mM phenylphosphate disodium and protease inhibitor cocktail) per g of material. Homogenates were centrifuged for 15 min at 17,000 g and 4°C. The supernatant was recovered and assayed for protein content (Bio-Rad, France). The proteins were separated by 10% NuPAGE pre-cast Bis-Tris polyacrylamide mini gel electrophoresis (Invitrogen, France) with MOPS-SDS running buffer. Proteins were transferred to 0.45-µm nitrocellulose filters (Schleicher and Schuell, Germany). They were blocked with 5% low-fat milk in Tris-buffered […]/Tween 20, and incubated overnight at 4°C with antibodies. Anti-DYRK1A (H00001859-M01; 1:1000) and anti-GSK-3α/β (KAM-ST002E; 1:1000) were obtained from Interchim (France) and Stressgen (France), respectively. Appropriate secondary antibodies conjugated to horseradish peroxidase (Bio-Rad) were added to visualize the proteins using the enhanced chemiluminescence reaction (ECL, Amersham, France).

[2] = molecular target: T1, DYRK1A (Mus musculus, UniProt Q61214); assay: In vitro kinase activity of DYRK1A immunopurified from mouse brains; type: biochemical; conditions: DYRK1A from untreated wt, Tg(Dyrk1a) and Ts65Dn brains, increasing concentrations
T1 construct: DYRK1A was purified from brain extracts by immunoprecipitation; from tissue; host or cells: mouse brain (wt, Tg(Dyrk1a), Ts65Dn)

O=C1NC(Nc2ccccc2)=N/C1=C\c1ccc2c(c1)OCO2 [L41]
Effect on expression of DYRK1A and GSK-3α/β protein [1]: no effect | In vitro inhibition of brain DYRK1A [2]: almost fully inhibited

Reference: publication PMC6176987, “Correction of cognitive deficits in mouse models of Down syndrome by a pharmacological inhibitor of DYRK1A” (Disease Models & Mechanisms, 2018)
